Measurements published in article PMC10657444, “Design and evaluation of tadpole-like conformational antimicrobial peptides” (Communications Biology, 2023).
Read-outs that look alike come from different tables or passages of the source.

Tested on: MRSA USA 300
Test: microbe, parasite or virus in culture
Assay type: cell-based, Staphylococcus aureus
Conditions: for MIC: Staphylococcus aureus
Method: MRSA USA 300 and K. pneumoniae ATCC 700603 were employed to assess the development of resistance. From inoculated microtiter panels, an aliquot of the well with the highest concentration permitting growth was taken and back diluted in fresh media to a turbidity of a 0.5 McFarland standard. This suspension was then further diluted and used to inoculate a fresh MIC panel resulting in a final concentration of 5 × 10^6 CFU/mL. Panels were incubated according to CLSI guidelines (M07, 11th edition, 2018), MICs were recorded and the next inoculum was prepared from the well containing the highest concentration of drug that allowed growth in identical fashion as described above.

O=C(O)c1cn(C2CC2)c2cc(N3CCNCC3)c(F)cc2c1=O [ciprofloxacin, reference compound]
16 µg/mL: MIC (read-out: Concentration (MIC in drug resistance assay), MRSA USA 300, day 33) | MIC (read-out: Concentration (MIC in drug resistance assay), MRSA USA 300, day 34) | MIC (read-out: Concentration (MIC in drug resistance assay), MRSA USA 300, day 35)
64 µg/mL: MIC (read-out: Concentration (MIC in drug resistance assay), MRSA USA 300, day 40)
32 µg/mL: MIC (read-out: Concentration (MIC in drug resistance assay), MRSA USA 300, day 32) | MIC (read-out: Concentration (MIC in drug resistance assay), MRSA USA 300, day 36) | MIC (read-out: Concentration (MIC in drug resistance assay), MRSA USA 300, day 37) | MIC (read-out: Concentration (MIC in drug resistance assay), MRSA USA 300, day 38)
2 µg/mL: MIC (96 h, read-out: Concentration (MIC in drug resistance assay), MRSA USA 300, day 4) | MIC (168 h, read-out: Concentration (MIC in drug resistance assay), MRSA USA 300, day 7) | MIC (240 h, read-out: Concentration (MIC in drug resistance assay), MRSA USA 300, day 10) | MIC (312 h, read-out: Concentration (MIC in drug resistance assay), MRSA USA 300, day 13) | MIC (336 h, read-out: Concentration (MIC in drug resistance assay), MRSA USA 300, day 14) | MIC (360 h, read-out: Concentration (MIC in drug resistance assay), MRSA USA 300, day 15) | MIC (384 h, read-out: Concentration (MIC in drug resistance assay), MRSA USA 300, day 16) | MIC (408 h, read-out: Concentration (MIC in drug resistance assay), MRSA USA 300, day 17) | MIC (432 h, read-out: Concentration (MIC in drug resistance assay), MRSA USA 300, day 18) | MIC (456 h, read-out: Concentration (MIC in drug resistance assay), MRSA USA 300, day 19) | MIC (504 h, read-out: Concentration (MIC in drug resistance assay), MRSA USA 300, day 21) | MIC (528 h, read-out: Concentration (MIC in drug resistance assay), MRSA USA 300, day 22) | MIC (552 h, read-out: Concentration (MIC in drug resistance assay), MRSA USA 300, day 23) | MIC (576 h, read-out: Concentration (MIC in drug resistance assay), MRSA USA 300, day 24) | MIC (600 h, read-out: Concentration (MIC in drug resistance assay), MRSA USA 300, day 25) | MIC (648 h, read-out: Concentration (MIC in drug resistance assay), MRSA USA 300, day 27) | MIC (672 h, read-out: Concentration (MIC in drug resistance assay), MRSA USA 300, day 28) | MIC (696 h, read-out: Concentration (MIC in drug resistance assay), MRSA USA 300, day 29)
8 µg/mL: MIC (read-out: Concentration (MIC in drug resistance assay), MRSA USA 300, day 31)
1 µg/mL: MIC (0 h, read-out: Concentration (MIC in drug resistance assay), MRSA USA 300, day 0) | MIC (48 h, read-out: Concentration (MIC in drug resistance assay), MRSA USA 300, day 2) | MIC (72 h, read-out: Concentration (MIC in drug resistance assay), MRSA USA 300, day 3) | MIC (120 h, read-out: Concentration (MIC in drug resistance assay), MRSA USA 300, day 5) | MIC (144 h, read-out: Concentration (MIC in drug resistance assay), MRSA USA 300, day 6) | MIC (264 h, read-out: Concentration (MIC in drug resistance assay), MRSA USA 300, day 11)
4 µg/mL: MIC (192 h, read-out: Concentration (MIC in drug resistance assay), MRSA USA 300, day 8) | MIC (216 h, read-out: Concentration (MIC in drug resistance assay), MRSA USA 300, day 9) | MIC (288 h, read-out: Concentration (MIC in drug resistance assay), MRSA USA 300, day 12) | MIC (480 h, read-out: Concentration (MIC in drug resistance assay), MRSA USA 300, day 20) | MIC (624 h, read-out: Concentration (MIC in drug resistance assay), MRSA USA 300, day 26) | MIC (read-out: Concentration (MIC in drug resistance assay), MRSA USA 300, day 30)
63 µg/mL: MIC (read-out: Concentration (MIC in drug resistance assay), MRSA USA 300, day 39)
0.5 µg/mL: MIC (24 h, read-out: Concentration (MIC in drug resistance assay), MRSA USA 300, day 1)
64 fold: increase in MIC after 40 passages (serial passage at sub-MIC)
